From patent US20180051284A1, “INHIBITORS OF MIR-17-92 CLUSTER FOR ANTI-TUMOR ACTIVITY IN MULTIPLE MYELOMA AND OTHER MALIGNANCIES” (priority 2014, published 2018)
l = locked nucleic acid (LNA); d = 2'-deoxy (DNA)

Key:
[1] = system: CD138+ primary MM cells from bone marrow aspirates of myeloma patients; assay: Cell viability (7-AAD) of primary myeloma cells after gymnotic exposure; type: cell-based, Human; details: 6 days gymnotic exposure, 2.5, 5 or 10 μM; cultured with HS-5 stromal cells
Method: Following informed consent approved by our University Hospital Ethical Commitee, CD138+cells were isolated from the BM aspirates of both Monoclonal gammopathy of undetermined significance (MGUS) and myeloma patients by Ficoll-Hypaque density gradient sedimentation followed by antibody-mediated positive selection using anti-CD138 magnetic activated cell separation microbeads (Miltenyi Biotech, Gladbach, Germany). Purity of immunoselected cells were assessed by flow-cytometric analysis using a phycoerythrin-conjugated CD138 monoclonal antibody by standard procedures.
7-aminoactinomycin was used to evaluate cell viability. The staining was performed according to manufacturer's instructions.
CD138+malignant plasma cells derived from bone marrow aspirates of 11 myeloma patients were cultured in presence of human stromal HS-5 cells.

INA-6 cells = assay: INA-6 SCID-hu model, serum shuIL-6R; type: in vivo, mice; details: I.P. 2 mg/kg at day 1-4-8-15-22; compared to controls
Method: The SCID-hu model was performed implanting human fetal long bone grafts sc into SCID mice (SCID-hu). Four weeks following bone implantation, 2.5×10^6 INA-6 multiple myeloma cells were injected directly into the human bone implant. Because INA-6 cells release soluble human IL-6 receptor (shuIL-6R), we used this marker to monitor tumor growth in SCID-hu mice.
Mouse sera were serially monitored for shulL-6R levels by ELISA (Quantikine […]; R&D Systems). Mice developed detectable serum shuIL-6R ˜4 weeks following INA-6 cell injection and then were […]. Three days after the last injection, blood samples were collected and analyzed (R&D Systems).
The in vivo activity of gapmer_06 was also evaluate in a orthotopic model of human MM using U266 cells, to explore the efficacy in relation to the microenvironment. Orthotopic murine model was performed by the use of NOD/SCID mice intravenously injected with luciferase gene-marked U266 cells. Tumor growth was monitored using IVIS LUMINA II Imaging System. […] Engraftment was determined by sacrificing mice after 10 weeks and analyzing bone marrow for luciferase gene-marked U266 cells. […] Mice were treated I.P. with gapmer_06 at concentration of 2 mg/kg at day 1-4-8-15-22, and serum shulL-6R levels were serially determined as a marker of tumor growth.

[2] = system: Capan1, MCF7, MDA231, LXF-289, A-549, NCI-H82, 5637, BCMW.1 and MPM-209 cells; assay: CCK-8 proliferation of non-myeloma cancer cell lines after gymnotic exposure; type: cell-based, Human; details: 6 days gymnotic exposure, 0-2,5-5-10 μM
Method: Cells were seeded at low plating density in order to reach confluence on the final day of the experiments (day 6). Cell number at plating ranged from 0.5 to 2.5×10^3 in 96-well plates, from 2.5 to 10×10^3 in 12-well plates and from 1 to 3×10^4 in 6-well plates.
(§1) Cells were seeded in 100 μL (suspension cell lines) or 50 μL (adherent cell lines) of culture medium at a density ranging from 0,5 to 2,5×10^3 cells per well. Survival was evaluated by both Cell Counting Kit-8 colorimetric assay (CCK-8, Dojindo Molecular Technologies, Japan) and CellTiter-Glo Luminescent Cell Viability Assay (Promega Madison, Wis., USA). Assays were performed according to the manufacturer's instructions. The optical density (OD) was evaluated at wave length of 450 nm. Both OD and luminescence were recorded with the GloMax-multi detection system (Promega, Madison, Wis., USA).
Specifically, we gymnotically exposed for 6 days to 0-2,5-5-10 μM of gapmer_06, the following cell lines: Capan1 pancreatic cancer cells, MCF7 and MDA231 breast cancer cells, LXF-289, A-549 and NCI-H82 lung cancer cells, 5637 bladder cancer cells, BCMW.1 Waldenstrom Macroglobulinemia cells and MPM-209 mesothelioma cells.

panel of MM cell lines = assay: CCK-8 cell growth analysis of a panel of MM cell lines after transfection; type: cell-based, Human; details: transfection 50-25-12,5 nM; up to 96 hours
Method: 3×10^5 cells were transfected using Neon Transfection System (Invitrogen, Calif.,U.S.), (2 pulses at 1150, 30ms). The transfection efficiency evaluated by flow-cytometric analysis relative to a FAM dye—labeled anti-miR—negative control reached 85% to 90%.
as §1

U266 cells = assay: U266 orthotopic model of human MM (IVIS); type: in vivo, mice; details: I.P. 2 mg/kg at day 1-4-8-15-22; compared to controls
Description: Male CB-17 severe combined immunodeficient (SCID) mice (6- to 8-weeks old; Harlan Laboratories, Inc., Indianapolis) were housed and monitored in our Animal Research Facility. All experimental procedures and protocols had been approved by the Institutional Ethical Committee (Magna Graecia University) and conducted according to protocols approved by the National Directorate of Veterinary Services (Italy). In accordance with institutional guidelines, mice were sacrificed when tumors reached 2 cm in diameter or in the event of paralysis or major compromise, to prevent unnecessary suffering. […] Mice were also inoculated with 5×10^6 luciferase gene-marked U266, AMO-1, AMO-1/abzb, treatments were performed intraperitoneally (i.p.), and tumor volume were measured by IVIS Lumina II.
The in vivo activity of gapmer_06 was also evaluate in a orthotopic model of human MM using U266 cells, to explore the efficacy in relation to the microenvironment. […] Tumor growth was monitored using IVIS LUMINA II Imaging System. […] Engraftment was determined by sacrificing mice after 10 weeks and analyzing bone marrow for luciferase gene-marked U266 cells. […] Mice were treated I.P. with gapmer_06 at concentration of 2 mg/kg at day 1-4-8-15-22, and serum shulL-6R levels were serially determined as a marker of tumor growth.

## gapmer_06: LNA/DNA gapmer, SEQ ID 4 (14 mer): +T*+A*+C*T*T*G*C*T*T*G*G*+C*+T*+T; + LNA, * phosphorothioate (antisense TACTTGCTTGGCTT; sugars from the 5' end l3 d8 l3, all phosphorothioate, methylation of C not given here)
[1]
  dead myeloma cells (7-AAD staining): significant increase of dead myeloma cells
INA-6 cells
  tumor growth (serum shuIL-6R levels): significant tumor-growth inhibition
[2]
  proliferation (CCK-8 cell growth analysis): impair proliferation of all cell lines
Panel of MM cell lines
  anti-proliferative activity (CCK-8 assay): exerted anti-proliferative activity up to 96 hours after transfection in all myeloma cell lines tested
U266 cells
  tumor growth (IVIS): significant tumor-growth inhibition
